Test results reported in PubChem BioAssay (NCI).
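Results reflect a 48-hour exposure of cells in 96-well plates to compound at five concentrations. Here, GI50 denotes the concentration required for 50% inhibition of growth. TGI is the concentration that stops growth completely.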

Legend:
Experiment in all cases: NCI tumour cell line growth inhibition, 48 h
MDA-MB-435 = test system: MDA-MB-435
NCI-H226 lung = test system: NCI-H226 lung
NCI/ADR-RES ovarian = test system: NCI/ADR-RES ovarian
HS 578T breast = test system: HS 578T breast
SK-MEL-5 melanoma = test system: SK-MEL-5 melanoma
UACC-62 melanoma = test system: UACC-62 melanoma
HT29 colon = test system: HT29 colon
CCRF-CEM leukemia = test system: CCRF-CEM leukemia
DU-145 prostate = test system: DU-145 prostate
UO-31 renal = test system: UO-31 renal
K-562 leukemia = test system: K-562 leukemia
M14 melanoma = test system: M14 melanoma
KM12 colon = test system: KM12 colon
MALME-3M melanoma = test system: MALME-3M melanoma
OVCAR-3 ovarian = test system: OVCAR-3 ovarian
NCI-H23 lung = test system: NCI-H23 lung
OVCAR-8 ovarian = test system: OVCAR-8 ovarian
SF-539 CNS = test system: SF-539 CNS
BT-549 breast = test system: BT-549 breast
ACHN renal = test system: ACHN renal
UACC-257 melanoma = test system: UACC-257 melanoma
IGROV1 ovarian = test system: IGROV1 ovarian
SNB-19 CNS = test system: SNB-19 CNS
NCI-H522 lung = test system: NCI-H522 lung
SN12C renal = test system: SN12C renal
SR leukemia = test system: SR leukemia
OVCAR-4 ovarian = test system: OVCAR-4 ovarian
SK-MEL-2 melanoma = test system: SK-MEL-2 melanoma
TK-10 renal = test system: TK-10 renal
A549 NSCLC = test system: A549 NSCLC
PC-3 prostate = test system: PC-3 prostate
EKVX NSCLC = test system: EKVX NSCLC
HCT-15 colon = test system: HCT-15 colon
HOP-92 NSCLC = test system: HOP-92 NSCLC
HCC-2998 colon = test system: HCC-2998 colon
MOLT-4 leukemia = test system: MOLT-4 leukemia
SW-620 colon = test system: SW-620 colon
NCI-H460 lung = test system: NCI-H460 lung
786-0 renal = test system: 786-0 renal
SK-OV-3 ovarian = test system: SK-OV-3 ovarian
OVCAR-5 ovarian = test system: OVCAR-5 ovarian
SNB-75 CNS = test system: SNB-75 CNS
LOX IMVI melanoma = test system: LOX IMVI melanoma
MCF7 breast = test system: MCF7 breast
HL-60(TB) leukemia = test system: HL-60(TB) leukemia
SF-295 CNS = test system: SF-295 CNS
U251 CNS = test system: U251 CNS
SF-268 CNS = test system: SF-268 CNS
MDA-MB-231 breast = test system: MDA-MB-231 breast
T-47D breast = test system: T-47D breast
RPMI-8226 leukemia = test system: RPMI-8226 leukemia
A498 renal = test system: A498 renal
HOP-62 NSCLC = test system: HOP-62 NSCLC
COLO 205 colon = test system: COLO 205 colon
SK-MEL-28 melanoma = test system: SK-MEL-28 melanoma
HCT-116 colon = test system: HCT-116 colon
CAKI-1 renal = test system: CAKI-1 renal

With `COc1ccc2c(CCCCC(c3ccccc3)c3ccccc3)c3[n+](cc2c1OC)CCc1cc2c(cc1-3)OCO2` the GI50 (MDA-MB-435) was 0.106 µM, the TGI (MDA-MB-435) was 1.02 µM and the GI50 (NCI-H226 lung) was 0.28 µM. For the same compound, the TGI (NCI-H226 lung) was 1.85 µM, the GI50 (NCI/ADR-RES ovarian) was 1.83 µM and the TGI (NCI/ADR-RES ovarian) was 7.48 µM. The GI50 (HS 578T breast) was 0.536 µM, the TGI (HS 578T breast) was 3.09 µM and the GI50 (SK-MEL-5 melanoma) was 0.0451 µM. For the same compound, the TGI (SK-MEL-5 melanoma) was 0.177 µM.

`[O-]c1c2cc(-[n+]3c(-c4ccccc4)cc(-c4ccccc4)cc3-c3ccccc3)cc1CO[C@@H](c1ccccc1)[C@H](c1ccccc1)OCCOCCO[C@@H](c1ccccc1)[C@H](c1ccccc1)OC2` gave a TGI (UACC-62 melanoma) of 1.39 µM, a TGI (HT29 colon) of 0.646 µM and a TGI (CCRF-CEM leukemia) of 0.238 µM. For the same compound, the TGI (DU-145 prostate) was 1.14 µM, the TGI (HS 578T breast) was 3.12 µM and the TGI (UO-31 renal) was > 100 µM.

In the case of `Cc1cccc2c1Oc1ncccc1C2NC(=O)CN(C)C` (stereo not drawn), the TGI (UACC-62 melanoma) is reported as > 10 µM, the TGI (K-562 leukemia) is reported as > 10 µM and the TGI (MDA-MB-435) is reported as > 10 µM. The TGI (M14 melanoma) was > 10 µM, the TGI (NCI-H226 lung) was > 10 µM and the TGI (KM12 colon) was > 10 µM. The TGI (MALME-3M melanoma) was > 10 µM, the TGI (OVCAR-3 ovarian) was > 10 µM and the TGI (NCI-H23 lung) was > 10 µM. For the same compound, the TGI (OVCAR-8 ovarian) was > 10 µM, the TGI (SF-539 CNS) was > 10 µM and the TGI (BT-549 breast) was > 10 µM. The TGI (HT29 colon) was > 10 µM, the TGI (CCRF-CEM leukemia) was > 10 µM and the TGI (ACHN renal) was > 10 µM. The TGI (UACC-257 melanoma) was > 10 µM, the TGI (IGROV1 ovarian) was > 10 µM and the TGI (SNB-19 CNS) was > 10 µM. For the same compound, the TGI (NCI-H522 lung) was > 10 µM, the TGI (SN12C renal) was > 10 µM and the TGI (SR leukemia) was > 10 µM. The TGI (OVCAR-4 ovarian) was > 10 µM, the TGI (SK-MEL-2 melanoma) was > 10 µM and the TGI (TK-10 renal) was > 10 µM. For the same compound, the TGI (A549 NSCLC) was > 10 µM, the TGI (PC-3 prostate) was > 10 µM and the TGI (EKVX NSCLC) was > 10 µM. For the same compound, the TGI (HCT-15 colon) was > 10 µM, the TGI (NCI/ADR-RES ovarian) was > 10 µM and the TGI (HOP-92 NSCLC) was > 10 µM. The TGI (HCC-2998 colon) was > 10 µM, the TGI (MOLT-4 leukemia) was > 10 µM and the TGI (SW-620 colon) was > 10 µM. For the same compound, the TGI (NCI-H460 lung) was > 10 µM, the TGI (786-0 renal) was > 10 µM and the TGI (SK-OV-3 ovarian) was > 10 µM. The TGI (OVCAR-5 ovarian) was > 10 µM, the TGI (SNB-75 CNS) was > 10 µM and the TGI (LOX IMVI melanoma) was > 10 µM. The TGI (MCF7 breast) was > 10 µM, the TGI (HL-60(TB) leukemia) was > 10 µM and the TGI (SF-295 CNS) was > 10 µM. For the same compound, the TGI (U251 CNS) was > 10 µM, the TGI (UO-31 renal) was > 10 µM and the TGI (SF-268 CNS) was > 10 µM.

Work on `O=C(Nc1cccc(C(F)(F)F)c1)Nc1ccc(OCc2nnc(-c3ccccc3)o2)c(F)c1` yielded a GI50 (MDA-MB-231 breast) of 3.3 µM, a TGI (MDA-MB-231 breast) of 22.3 µM and a GI50 (UACC-62 melanoma) of 4.1 µM. The TGI (UACC-62 melanoma) was 24.6 µM, the GI50 (K-562 leukemia) was 5.12 µM and the TGI (K-562 leukemia) was 47.2 µM. The GI50 (MDA-MB-435) was 7.51 µM, the TGI (MDA-MB-435) was 89.8 µM and the GI50 (M14 melanoma) was 7.18 µM. It also gave a TGI (M14 melanoma) of 62.8 µM, a GI50 (NCI-H226 lung) of 10.7 µM and a TGI (NCI-H226 lung) of 52 µM. It also gave a GI50 (KM12 colon) of 2.43 µM, a TGI (KM12 colon) of 12.8 µM and a GI50 (MALME-3M melanoma) of 3.35 µM. It also gave a GI50 (OVCAR-3 ovarian) of 4.23 µM, a TGI (OVCAR-3 ovarian) of 17 µM and a GI50 (NCI-H23 lung) of 4.49 µM. It also gave a TGI (NCI-H23 lung) of 24.5 µM, a GI50 (OVCAR-8 ovarian) of 5.19 µM and a TGI (OVCAR-8 ovarian) of 32.1 µM. For the same compound, the GI50 (SF-539 CNS) was 5.1 µM, the TGI (SF-539 CNS) was 23.2 µM and the GI50 (HT29 colon) was 5.08 µM. For the same compound, the TGI (HT29 colon) was 58.5 µM, the GI50 (CCRF-CEM leukemia) was 3.29 µM and the TGI (CCRF-CEM leukemia) was 54.9 µM. For the same compound, the GI50 (ACHN renal) was 2.92 µM, the TGI (ACHN renal) was 12.3 µM and the GI50 (DU-145 prostate) was 6.06 µM. It also gave a TGI (DU-145 prostate) of 28.3 µM, a GI50 (UACC-257 melanoma) of 6.38 µM and a TGI (UACC-257 melanoma) of 37.9 µM. The GI50 (IGROV1 ovarian) was 5.5 µM, the TGI (IGROV1 ovarian) was 26.6 µM and the GI50 (T-47D breast) was 2.44 µM. For the same compound, the TGI (T-47D breast) was 16.1 µM, the GI50 (SNB-19 CNS) was 4.4 µM and the TGI (SNB-19 CNS) was 35.5 µM. It also gave a GI50 (SN12C renal) of 9.36 µM, a TGI (SN12C renal) of 46.1 µM and a GI50 (RPMI-8226 leukemia) of 1.67 µM. The TGI (RPMI-8226 leukemia) was 6.2 µM, the GI50 (SR leukemia) was 2.23 µM and the TGI (SR leukemia) was 9.65 µM. For the same compound, the GI50 (OVCAR-4 ovarian) was 4 µM, the TGI (OVCAR-4 ovarian) was 30.1 µM and the GI50 (SK-MEL-2 melanoma) was 7.16 µM. The TGI (SK-MEL-2 melanoma) was 25.8 µM, the GI50 (A498 renal) was 3.38 µM and the TGI (A498 renal) was 25.8 µM. For the same compound, the GI50 (TK-10 renal) was 20.5 µM, the TGI (TK-10 renal) was 68.9 µM and the GI50 (A549 NSCLC) was 6.02 µM. The TGI (A549 NSCLC) was 38.5 µM, the GI50 (HOP-62 NSCLC) was 3.4 µM and the TGI (HOP-62 NSCLC) was 18 µM. It also gave a GI50 (COLO 205 colon) of 2.47 µM, a TGI (COLO 205 colon) of 10.6 µM and a GI50 (PC-3 prostate) of 2.01 µM. It also gave a TGI (PC-3 prostate) of 13.7 µM, a GI50 (HCT-15 colon) of 2.92 µM and a TGI (HCT-15 colon) of 54.3 µM. It also gave a GI50 (NCI/ADR-RES ovarian) of 4.61 µM, a TGI (NCI/ADR-RES ovarian) of 26.9 µM and a GI50 (SK-MEL-28 melanoma) of 10.3 µM. The TGI (SK-MEL-28 melanoma) was 66.5 µM, the GI50 (HOP-92 NSCLC) was 1.77 µM and the TGI (HOP-92 NSCLC) was 5.81 µM. For the same compound, the GI50 (HCC-2998 colon) was 6.4 µM, the TGI (HCC-2998 colon) was 59.8 µM and the GI50 (HCT-116 colon) was 3.02 µM. It also gave a TGI (HCT-116 colon) of 16.5 µM, a GI50 (CAKI-1 renal) of 6.68 µM and a TGI (CAKI-1 renal) of 37.4 µM. It also gave a GI50 (MOLT-4 leukemia) of 3.59 µM, a TGI (MOLT-4 leukemia) of 39.8 µM and a GI50 (SW-620 colon) of 4.08 µM. The TGI (SW-620 colon) was > 100 µM, the GI50 (NCI-H460 lung) was 3.61 µM and the TGI (NCI-H460 lung) was 15.3 µM. The GI50 (786-0 renal) was 6.18 µM, the TGI (786-0 renal) was 22.4 µM and the GI50 (SK-OV-3 ovarian) was 5.57 µM. The TGI (SK-OV-3 ovarian) was 27.3 µM, the GI50 (OVCAR-5 ovarian) was 18.9 µM and the TGI (OVCAR-5 ovarian) was > 100 µM. It also gave a GI50 (HS 578T breast) of 2.5 µM, a TGI (HS 578T breast) of 14.7 µM and a GI50 (SNB-75 CNS) of 0.645 µM. It also gave a TGI (SNB-75 CNS) of 5.81 µM, a GI50 (SK-MEL-5 melanoma) of 5.71 µM and a TGI (SK-MEL-5 melanoma) of 21.3 µM. The GI50 (LOX IMVI melanoma) was 4.58 µM, the TGI (LOX IMVI melanoma) was 25.6 µM and the GI50 (MCF7 breast) was 4.21 µM. The TGI (MCF7 breast) was 24.4 µM, the GI50 (HL-60(TB) leukemia) was 2.58 µM and the TGI (HL-60(TB) leukemia) was 6.4 µM. The GI50 (SF-295 CNS) was 2.7 µM, the TGI (SF-295 CNS) was 14.1 µM and the GI50 (U251 CNS) was 3.73 µM. The TGI (U251 CNS) was 19.6 µM, the GI50 (UO-31 renal) was 3.11 µM and the TGI (UO-31 renal) was 21 µM. The GI50 (SF-268 CNS) was 12.3 µM and the TGI (SF-268 CNS) was 78.2 µM.
